Results taken from patent publication US7989667B2, “Processes for the crystallization of 2,2,4,4-tetramethylcyclobutanediol” (Eastman Chemical Company, priority 2008, dated 2011).

Experiments:
[1] = Meta-stable zone width in isobutyl isobutyrate (colorimeter transmission on cooling from 90 to 10 °C); type: physicochemical; conditions: for Limit of MZW / MZW (meta-stable zone width): isobutyl isobutyrate; for difference in onset of nucleation between repeated cool-downs: Experiments 3 and 4 of Table 2, same cooling rate 5 °C/hr; for Limit of Meta-Stable Zone Width: Table 1A, in isobutyl isobutyrate, data points shown in FIG. 7
From the text: The meta-stable zone width was estimated by charging 800 grams of a solution containing 100 relative weight % cis-2,2,4,4-tetramethylcyclobutanediol and 69 relative weight % trans-2,2,4,4-tetramethylcyclobutanediol in isobutyl isobutyrate solvent to a 1.2 L jacketed glass vessel. The vessel was equipped with a 4-blade flat blade pitched impeller for solids suspension, and the jacket was used to control the temperature of the vessel contents. The vessel was equipped with charging and sampling ports on top and a valve at the base to drain the vessel. The vessel contents were heated to 90° C., at which temperature both isomers were completely in solution.
All measurements to estimate the meta-stable zone width were made using a Beckmann Instruments PC 800 Colorimeter device. The device operated by transmitting a white light source into the solution which was reflected from a mirror at a distance of several millimeters from the source back to a detector in the probe. When no particles were present in suspension, most of the light was reflected back to the detector. If the solution was relatively transparent, some of the light was adsorbed by the solution and some was diffracted, but the majority was reflected. If crystals were present, a substantial quantity of the white light was adsorbed by the crystal mass and diffracted and less of the light was reflected back to the detector. In order to calibrate the instrument, a reference intensity was measured when no crystals were in suspension, and this was referred to as the 100% transmittance level.
The colorimeter was placed in the vessel such that the probe tip was submerged in the solution. The crystal free solution was cooled from 90° C. to 10° C. at a pre-determined cooling rate indicated in Table 2 and the magnitude of the transmission signal of the white light source monitored. When crystals appeared in solution, the white light source was blocked and the transmission/reflection decreased rapidly. Two distinct step changes in the transmission signal were observed indicating the nucleation of cis- and trans-2,2,4,4-tetramethylcyclobutanediol in suspension. FIG. 8 is a graph showing the solubility of cis-and trans-2,2,4,4-tetramethylcyclobutanediol in isobutyl isobutyrate and operating points for continuous crystallization.

[2] = Solubility of cis- and trans-2,2,4,4-tetramethylcyclobutanediol in isobutyl isobutyrate (GC of saturated liquid phase); type: physicochemical
Description: All of the solubility data and concentrations of cis and trans TMCD were measured by gas chromotography (GC) using an Agilent 6890GC instrument. The instrument was equipped with a split-splitless injector and flame ionization detection. The column is a DB®-Wax, 30 meter×0.25 mm ID, 0.50 μm film thickness column. The cis/trans ratio of the compositions was calculated from the respective concentrations.
The charge concentration of the isomers is expressed as weight % relative to the saturated concentration of each isomer at a temperature of 62.6° C.
The charge concentration of the isomers is expressed as weight % relative to the saturated concentration of each isomer at a temperature of 62.6° C. The vessel was equipped with a 4-blade flat blade pitched impeller for solids suspension, and the jacket was used to control the temperature of the vessel contents. The vessel was equipped with charging and sampling ports on top and a valve at the base to drain the vessel contents.
The slurry was allowed to stand for one hour sufficient for the solids to saturate the solvent at 6.4° C. At that time, a sample of the solution was drawn from the cell using a fritted pipette so as to remove only the liquid phase. The sample was analyzed for cis and trans isomer content. These values represented the saturated concentration of each isomer at the sampling temperature.
The cell contents were heated to 10.2° C. and the contents were held for a further hour to allow the slurry to equilibrate. A sample was then taken of the solution and analyzed. Following this procedure, data was gathered to 62.6° C.

[3] = Experiment 1, cooling rate 15 °C/hr
[4] = Experiment 2, cooling rate 10 °C/hr
[5] = Experiment 3, cooling rate 5 °C/hr
[6] = Experiment 4, cooling rate 5 °C/hr
[7] = Table 1A, in isobutyl isobutyrate, extrapolated from the data of FIG. 7
[8] = Table 2, solution in isobutyl isobutyrate used for MZW experiments 1-4
[9] = in isobutyl isobutyrate, 6.4 °C, wt % relative to saturated concentration of each isomer at 62.6 °C
[10] = in isobutyl isobutyrate, 10.2 °C, relative to saturated concentration at 62.6 °C
[11] = in isobutyl isobutyrate, 19 °C, relative to saturated concentration at 62.6 °C
[12] = in isobutyl isobutyrate, 26.2 °C, relative to saturated concentration at 62.6 °C
[13] = in isobutyl isobutyrate, 34.7 °C, relative to saturated concentration at 62.6 °C
[14] = in isobutyl isobutyrate, 39.6 °C, relative to saturated concentration at 62.6 °C
[15] = in isobutyl isobutyrate, 44.5 °C, relative to saturated concentration at 62.6 °C
[16] = in isobutyl isobutyrate, 51.6 °C, relative to saturated concentration at 62.6 °C
[17] = in isobutyl isobutyrate, 58.8 °C, relative to saturated concentration at 62.6 °C
[18] = in isobutyl isobutyrate, 62.6 °C (reference temperature)

Compound | Limit of MZW [1, 3] [°C] | MZW (meta-stable zone width) [1, 3] [°C] | Limit of MZW [1, 4] [°C] | MZW (meta-stable zone width) [1, 4] [°C] | Limit of MZW [1, 5] [°C] | MZW (meta-stable zone width) [1, 5] [°C] | Limit of MZW [1, 6] [°C] | MZW (meta-stable zone width) [1, 6] [°C] | difference in onset of nucleation between repeated cool-downs [1] | Limit of Meta-Stable Zone Width [1] [°C] | Saturated Temperature [2, 7] [°C] | Saturated Temperature [2, 8] [°C] | Solubility [2, 9] [Relative wt %] | Solubility [2, 10] [Relative wt %] | Solubility [2, 11] [Relative wt %] | Solubility [2, 12] [Relative wt %] | Solubility [2, 13] [Relative wt %] | Solubility [2, 14] [Relative wt %] | Solubility [2, 15] [Relative wt %] | Solubility [2, 16] [Relative wt %] | further results
CC1(C)[C@H](O)C(C)(C)[C@@H]1O [Cis-2,2,4,4-tetramethylcyclobutanediol, cis-2,2,4,4-tetramethylcyclobutanediol] | 50.94 | 17.06 | 51.77 | 16.23 | 60.38 | 7.62 | 58.24 | 9.76 | approximately 2 °C | 58.24 | 68 | 68 | 0 | 3 | 10 | 17 | 29 | 37 | 47 | 64 | Solubility [2, 17]: 86 Relative wt %; Solubility [2, 18]: 100 Relative wt %
CC1(C)[C@H](O)C(C)(C)[C@H]1O [Trans-2,2,4,4-tetramethylcyclobutanediol, trans-2,2,4,4-tetramethylcyclobutanediol] | 48.67 | 8.33 | 49.29 | 7.71 | 50.34 | 6.66 | 50.36 | 6.64 | 0.02 °C | 50.36 | 57 | 57 | 1 | 3 | 10 | 19 | 32 | 41 | 52 | 69 | Solubility [2, 17]: 89 Relative wt %; Solubility [2, 18]: 100 Relative wt %
